Patent publication US4346103A, “Treatment for arthritis and substances for use in such treatment” (priority 1976, dated 1982)

Legend:
[1] = acute toxicity trial in mice; type: in vivo; conditions: 26 mice; doses up to about 3000 mg per kg per day
Description: In an acute toxicity trial, 1,8-diacetoxy-3-carboxyanthraquinone (diacetylrhein) was administered to 26 mice in doses of up to about 3000 mg per kg per day.

[2] = human ingestion of diacetylrhein for 15 months, side effects; type: in vivo; conditions: about 100 mg per day
Description: (§1) A human patient having severe osteoarthritis (established by X-ray, CSF and rheumatoid factor assessments) across the lower back was treated with diacetylrhein. The patient had greatly restricted torsal rotation and a notable pain in their back and legs after remaining seated for 30 to 60 minutes. The patient was treated by ingesting two daily doses of 50 mg of diacetylrhein.

[3] = treatment of osteoarthritis patients; type: in vivo, human; conditions: one patient, severe osteoarthritis across lower back
Description: as §1

[4] = treatment of patients with rheumatoid arthritis of the hands; type: in vivo, human; conditions: three cases; 50 mg twice daily for between five and ten days
Description: In three cases, patients with rheumatoid arthritis of the hands, having swollen fingers and painful joints, were treated with 50 mg of diacetylrhein, twice daily for between five and ten days.

[5] = clinical tests on arthritis patients; type: in vivo, human
Text: Clinical tests have been carried out on arthritis patients with extremely encouraging results.

treatment of MS patients = type: in vivo; conditions: four human patients; two daily doses of 50 mg, ingested
Description: Four human patients suffering from MS were treated with diacetylrhein. They were treated by ingesting two daily doses of 50 mg diacetylrhein.

[6] = treatment of an ALS patient; type: in vivo, human; conditions: one patient, fairly advanced stage; six months; daily doses increasing up to 150 mg
Description: A human patient suffering from ALS in a fairly advanced stage was treated with diacetylrhein over a period of six months. The diacetylrhein was ingested in daily doses increasing up to 150 mg daily.

[7] = clinical trials in MS and ALS patients; type: in vivo, human; conditions: patients suffering from MS and ALS
Text: Clinical trials are being carried out in which patients suffering from MS and ALS are being treated with diacetylrhein.

[8] = side effects in all clinical trials to date; type: in vivo, human
Text: In all clinical trials carried out to date with diacetylrhein side effects have been unsignificant.

[9] = adhesion to intestinal mucosa / absorption; type: in vivo; conditions: rhein found to adhere, should thus be relatively poorly absorbed
[10] = tested on: NADH-dehydrogenase complex; conditions: interferes with redox function of NADH-dehydrogenase complex, thus mitochondrial oxidations; cited from earlier work
[11] = cited from earlier work
[12] = two daily doses of 50 mg, ingested

| Compound | deaths [1] | untoward effects [2] | condition with continued treatment ([3]; continued treatment) | onset of effect [3, 12] | pain, torsal rotation and early morning stiffness [3, 12] | finger thickness (swelling) [4] | pain in the joints [4] | failure to respond to treatment ([5]; arthritis patients) | need for Charnley Hip Operation ([5]; patients with arthritis of the hip) | pain and limb unsteadiness (treatment of MS patients) | deterioration: unsteadiness of gait and weakness of voice [6] | stabilisation of condition [6] | results of clinical trials [7] | side effects ([8]; all clinical trials carried out to date) | only side effect encountered ([8]; all clinical trials to date, eliminated by reducing the dosage) | adhesion to the intestinal mucosa [9] | inhibition of NADH-linked oxidation [10] | toxicity ([11]; oral ingestion) | side-effects on long-term intake ([11]; taken for long periods of time, in the dosage required) |
| --- | --- | --- | --- | --- | --- | --- | --- | --- | --- | --- | --- | --- | --- | --- | --- | --- | --- | --- | --- |
| CC(=O)Oc1cccc2c1C(=O)c1c(OC(C)=O)cc(C(=O)O)cc1C2=O [diacetylrhein, 1,8-diacetoxy-3-carboxyanthraquinone] | None of the mice died | No untoward effects were noted | maintained their improved condition | An effect was noted on the fourth and fifth days | became pain free with restored torsal rotation and without early morning stiffness | The fingers rapidly returned to normal thickness | the pain in the joints disappeared and was absent even when these were submitted to pressure | There has almost never been a failure to respond to this treatment | sufficient progress for this to be unnecessary | The pain and a large part of the limb unsteadiness disappeared within seven to ten days of initiating treatment | substantially inhibited | substantially stabilised | most encouraging | unsignificant | some diarrhoea |  |  |  |  |
| O=C(O)c1cc(O)c2c(c1)C(=O)c1cccc(O)c1C2=O [Rhein, 1,8-dihydroxyanthra-quinone-3-carboxylic acid] |  |  |  |  |  |  |  |  |  |  |  |  |  |  |  | adheres strongly to the intestinal mucosa | inhibitor of NADH-linked oxidation | relatively non-toxic | without any apparent side-effects |
